# Legend:
# Assay type in all cases: in vivo
# barnyard grass (Eo) [1] = assay: Test Example 1: herbicidal effects by flooded paddy field treatment; set-up: herbicidal effects, Eo (barnyard grass):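 0-5 growth inhibition grade; 5 = over 90%; 4 = 70-90%; 3 = 50-70%; 2 = 30-50%; 1 = 10-30%; 0 = under 10%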; details: for herbicidal effects, Eo (barnyard grass): dose 100 g active ingredient per 10 ares, examined on the 21st day after treatment, standards of Table 44; for Herbicidal effect index, Eo: dose 100 gai/10a, examined on 21st day after treatment, index 0-5 per Table 44;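 for Herbicidal effect index, Eo: 0-5 growth inhibition grade; 5 = over 90%; 4 = 70-90%; 3 = 50-70%; 2 = 30-50%; 1 = 10-30%; 0 = under 10%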
# Procedure, shortened: (§1)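 Dose: 100 g active ingredient per 10 ares as a diluted wettable powder dripped onto 3 cm floodwater, one day after sowing in puddled paddy soil. Scored by a standard rating scale 21 days later following greenhouse growth.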
# monochoria (Mo) [2] = assay: as above; set-up: herbicidal effects, Mo (monochoria):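 0-5 growth inhibition grade; 5 = over 90%; 4 = 70-90%; 3 = 50-70%; 2 = 30-50%; 1 = 10-30%; 0 = under 10%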; details: for herbicidal effects, Mo (monochoria): dose 100 g active ingredient per 10 ares, examined on the 21st day after treatment, standards of Table 44; for Herbicidal effect index, Mo: dose 100 gai/10a, examined on 21st day after treatment, index 0-5 per Table 44
# Procedure, shortened: as §1
# barnyard grass (Ec) [3] = assay: Test Example 2: herbicidal effects by upland soil treatment; set-up: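 0-5 growth inhibition grade; 5 = over 90%; 4 = 70-90%; 3 = 50-70%; 2 = 30-50%; 1 = 10-30%; 0 = under 10%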; details: dose 100 g active ingredient per 10 ares, examined on the 21st day after treatment; for herbicidal effects, Ec (barnyard grass): standards of Table 44
# Procedure, shortened: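 Pre-emergence test: barnyard grass and green foxtail sown in upland soil, then soil surface sprayed with wettable-powder formulation at 100 g active ingredient per 10 ares (100 l per 10 ares). Grown in greenhouse; herbicidal effect scored on a rating scale 21 days after treatment.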
# green foxtail (Se) = assay: as above; details: dose 100 g active ingredient per 10 ares, examined on the 21st day after treatment, standards of Table 44;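 note: 0-5 growth inhibition grade; 5 = over 90%; 4 = 70-90%; 3 = 50-70%; 2 = 30-50%; 1 = 10-30%; 0 = under 10%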
# Procedure: In a 80 cm^2 plastic pot, upland soil was filled, and seeds of barnyard grass (Ec) and green foxtail (Se) were sown and covered with soil. A wettable powder prepared in accordance with Formulation Example 1 was diluted with water and uniformly applied to the soil surface by means of a small size spray at a rate of 100 l per 10 ares, so that the dose of the active ingredient would be 100 g per 10 ares. Thereafter, cultivation was carried out in a green house, and on the 21st day after the treatment, the herbicidal effects were examined in accordance with the standards as identified in Table 44.
# barnyard grass (Eo) [4] = assay: Test Example 4: selectivity for a crop plant by flooded paddy field treatment; set-up: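 0-5 growth inhibition grade; 5 = over 90%; 4 = 70-90%; 3 = 50-70%; 2 = 30-50%; 1 = 10-30%; 0 = under 10%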; details: barnyard grass, dose 25 gai/10a, 21st day after treatment, index per Table 44
# Procedure, shortened: (§2)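 Water-surface application in a greenhouse pot test: 25 g active ingredient per 10 ares, given as a diluted wettable powder one day after flooding, with visual rating of herbicidal effect three weeks post-treatment.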
# monochoria (Mo) [5] = assay: as above; set-up: scale not given here; details: monochoria, dose 25 gai/10a, 21st day after treatment, index per Table 44
# Procedure, shortened: as §2
# rice (Or) = assay: as above; set-up: scale not given here; details: rice transplanted at second leaf stage, dose 25 gai/10a, 21st day after treatment, index per Table 44
# Procedure, shortened: as §2
# barnyard grass (Ec) [6] = assay: Test Example 3: herbicidal effects by foliage treatment in upland field; set-up: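 0-5 growth inhibition grade; 5 = over 90%; 4 = 70-90%; 3 = 50-70%; 2 = 30-50%; 1 = 10-30%; 0 = under 10%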; details: dose 100 g active ingredient per 10 ares, examined on the 14th day after treatment
# Procedure, shortened: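 Barnyard grass and green foxtail were grown in upland soil for 2 weeks in a greenhouse. A water-diluted wettable powder was sprayed over the foliage at 100 l per 10 ares, giving 100 g active ingredient per 10 ares. Herbicidal effect was scored on day 14 after treatment.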
# 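Throughout, for Herbicidal effect index, Mo: 0-5 growth inhibition grade; 5 = over 90%; 4 = 70-90%; 3 = 50-70%; 2 = 30-50%; 1 = 10-30%; 0 = under 10%.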
Structure (SMILES),"herbicidal effects, Eo (barnyard grass) (barnyard grass (Eo) [1])","herbicidal effects, Mo (monochoria) (monochoria (Mo) [2])","herbicidal effects, Ec (barnyard grass) (barnyard grass (Ec) [3])","herbicidal effects, Se (green foxtail) (green foxtail (Se))",Eo (herbicidal effect index) (barnyard grass (Eo) [4]),Mo (herbicidal effect index) (monochoria (Mo) [5]),Or (herbicidal effect index on crop) (rice (Or)),"Herbicidal effect index, Eo (barnyard grass (Eo) [1])","Herbicidal effect index, Mo (monochoria (Mo) [2])","Ec (herbicidal effects, index) (barnyard grass (Ec) [3])","Ec (herbicidal effects, index) (barnyard grass (Ec) [6])"
CN(C(=O)Cc1ccc(Cl)cc1)C(c1cccs1)c1cncnc1C(F)(F)F (racemic) [1-200],5,5,5,5,5,5,1,,,,
CC(C)C(c1cncnc1C1CC1)N(C)C(=O)Cc1ccc(F)cc1 (racemic) [Compound 1-101],,,5,5,,,,5,5,,
CC(Oc1ccccc1)C(=O)N(C)C(c1cncnc1C(F)(F)F)C(C)C (mixture of isomers) [Compound 1-115],,,5,5,,,,5,5,,
CCN(C(=O)Cc1cccc(F)c1)C(c1cncnc1C(F)(F)F)C(C)C (racemic) [1-173],5,5,5,5,,,,,,,
CCN(C(=O)Cc1ccc(C(F)(F)F)cc1)C(c1cncnc1C(F)(F)F)C(C)C (racemic) [1-174],5,5,5,5,,,,,,,
CCCC(c1cncnc1C(F)(F)F)N(C)C(=O)Cc1ccc(Cl)cc1 (racemic) [Compound 1-114],,,5,5,,,,5,5,,
CC(C)C(c1cncnc1C(F)(F)F)N(C)C(=O)Cc1cccc(F)c1F (racemic) [Compound 1-148],5,5,5,5,,,,,,,
CN(C(=O)Cc1ccc(F)cc1)C(c1ccc(Cl)cc1)c1cncnc1C(F)(F)F (racemic) [1-222],5,5,5,5,,,,,,,
CN(C(=O)Cc1ccc(F)cc1)C(c1cncnc1C(F)(F)F)C1CC1 (racemic) [Compound 1-35],,,5,5,,,,5,5,,
CN(C(=O)Cc1ccc(F)cc1)C(c1cncnc1C(F)(F)F)C1CCCC1 (racemic) [Compound 1-138],5,5,5,5,,,,,,,
CC(C)C(c1cncnc1C(F)F)N(C)C(=O)Cc1ccc(Cl)cc1 (racemic) [Compound 1-165],5,5,5,5,,,,,,,
Cc1ncncc1C(N(C)C(=O)Cc1ccccc1)C(C)(C)C (racemic) [Compound 1-159],5,5,5,5,,,,,,,
Cc1ncncc1C(N(C)C(=O)Cc1ccc(F)cc1)C(C)(C)C (racemic) [Compound 1-160],5,5,5,5,,,,,,,
Cc1ccc(CC(=O)N(C)C(c2cncnc2C2CC2)C(C)C)cc1 (racemic) [Compound 1-102],,,5,5,,,,5,5,,
COC(C(=O)N(C)C(c1cncnc1C(F)(F)F)C(C)C)c1ccc(Cl)cc1 (mixture of isomers) [Compound 1-155],5,5,4,4,,,,,,,
CSc1ncncc1C(C(C)C)N(C)C(=O)Cc1ccc(Cl)cc1 (racemic) [Compound 1-151],5,5,5,5,,,,,,,
CCC(c1cncnc1C(F)(F)F)N(C)C(=O)Cc1ccccc1 (racemic) [Compound 1-32],,,5,5,,,,5,5,,
CC(C)C(c1cncnc1C(F)F)N(C)C(=O)Cc1ccccc1 (racemic) [Compound 1-163],5,5,5,5,,,,,,,
COc1ccc(SC(=O)N(C)C(c2cncnc2C(F)(F)F)C(C)C)cc1 (racemic) [Compound 1-11],,,5,5,,,,,,,
"Cc1ccc(NC(=O)N(C)C(c2cncnc2C(F)(F)Cl)C(C)C)cc1 (stereo not drawn) [Compound 1-37, N-methyl-N-[2-methyl-1-(4-chlorodifluoromethylpyrimidin-5-yl)propyl]-N′-(4-methylphenyl)urea]",,,5,5,,,,5,5,,
CC(C)c1ncncc1C(C(C)C)N(C)C(=O)Cc1ccccc1 (racemic) [Compound 1-128],5,4,5,5,,,,,,,
CC(C)C(c1cncnc1)N(C)C(=O)Cc1ccc(Cl)cc1 (racemic) [Compound 1-90],,,5,5,,,,5,5,,
CN(C(=O)Cc1ccc(Cl)cc1)C(c1ccccc1)c1cncnc1C(F)(F)F (racemic) [1-187],5,5,5,5,,,,,,,
CC(C)C(c1cncnc1C(F)(F)F)N(C)C(=O)Oc1ccc(F)cc1 (racemic) [1-177],5,5,4,4,,,,,,,
CC(C)C(c1cncnc1C(F)(F)F)N(C)C(=O)NCc1ccccc1 (racemic) [1-461],5,5,,,5,5,1,,,5,4
CN(C(=O)Cc1ccc(Cl)cc1)C(c1ccsc1)c1cncnc1C(F)(F)F (racemic) [1-442],5,5,,,5,5,1,,,5,4

# Source: patent publication US6806230B1, “Pyrimidine derivatives and herbicides containing them” (Kumiai Chemical Industry Co., Ltd., priority 1999, dated 2004)
